Measurements: patent US10732171B2, “Human skin sample methods and models for validating hypotheses for mechanisms driving skin pigmentation” (The Procter & Gamble Company, priority 2011, dated 2020)

Experiments:
tone genes of interest = test: ex-vivo tissue culture exposed to compounds known to stimulate the pigmentation pathway, tone gene regulation; assay type: cell-based, human; conditions: p≤0.1, minimum of 2-10 experiments each
[1] = tested on: facial skin tone (spots, melanin evenness); test: 9-week clinical study, randomized, double-blind, vehicle-controlled, split-face; assay type: in vivo, human
Excerpt: For example, hexyldecanol was compared to vehicle controls and positive controls (5% Niacinamide+1% undecylenoyl phenylalanine) through a 9-week period. Specifically the trial included a 9-week clinical study with a randomized, double-blind, round robin, vehicle-controlled, split-face design, including one week normalization period whereby 330 subjects received test product.

[2] = tested on: rat melanoma line known to produce melanin; test: total melanin assay in melanoma cell culture; assay type: cell-based; conditions: rat melanoma cell cultures; compared to controls
Procedure: (§1) The ex-vivo screening method has provided identification of agents consistent with in-vitro studies and which have proven positive clinically. One such example is hexyldecanol. […] For example, total melanin assays were performed using a rat melanoma line known to produce melanin. […] Therefore, promising tone agents such as hexyldecanol identified from the in-vitro model and the ex-vivo model have been tested in clinical settings.

tone genes = test: Human Ex-vivo Pre-Clinical Model, fold regulation changes by clinical formulations; assay type: cell-based; conditions: FIGS. 25a and 25b
Procedure: FIGS. 25a and 25b show two respective tables showing ex-vivo model fold regulation changes indicating significant down-regulation by clinical formulations in the Human Ex-vivo Pre-Clinical Model.
as §1

9 epidermal tone genes [3] = test: endogenously driven ex-vivo human skin tissue, regulation of tone genes (mRNA/PCR) vs untreated control; assay type: cell-based; conditions: number of epidermal genes regulated, endogenously driven tissue sample, 37° C. and 70% humidity, 2-10 experiments each
Procedure: Referring to FIGS. 11 to 15, examples are shown for the regulation of the 9 epidermal tone genes against an untreated control in an endogenously driven ex-vivo tissue system at 37° C. and 70% humidity for niacinamide, hexamidine, N-Acetyl glucosamine, kojic acid, tranexamic acid, and undecylenoyl phenylalanine (2-10 experiments each). […] For instance, out of the 9 epidermal genes, at least one compound (Hexamidine) regulated 9 genes (with a statistical significance of p<0.1 or better) while two compounds regulated 5 or fewer genes (with a p<0.1 or better). Table 1 below summarizes the number of epidermal genes regulated by certain materials in an endogenously driven tissue sample with a statistical significance of p≤0.1.
Culturing involved setting up culture plates: putting 2.5 ml of media or treatment into each well of a 6-well tissue plate, adding one Millicell culture insert to each well, and putting 100 μl of 1×DMEM on the center of each insert membrane. Squares were selected randomly placed into each of the inserts (one piece of skin per insert), on top of the media on the membrane. The plates were stored at either 33° C. (though an additional non-limiting example would be 37° C. depending on the experiment endpoint). […]
Culture and treatment of the model comprised replicates of n=5 (though replicates of additional quantities may be used such as n=6). […]

9 epidermal tone genes [4] = test: Stem Cell Factor/Endothelin 1 driven ex-vivo human skin tissue, regulation of tone genes vs untreated control; assay type: cell-based; conditions: number of the 9 epidermal genes regulated, Stem Cell Factor/Endothelin 1 driven tissue sample, 37° C. and 70% humidity
Procedure: Referring to FIGS. 19 to 23, examples (of 2-10 experiments each) are shown for the regulation of the 9 epidermal tone genes against an untreated control in ex-vivo tissue driven by the combination of Stem Cell Factor and Endothelin at 37° C. and 70% humidity for niacinamide, hexamidine, N-Acetyl glucosamine, kojic acid, tranexamic acid, and undecylenoyl phenylalanine. […] For instance, out of the 9 epidermal genes, at least one compound (undecylenoyl phenylalanine) regulated 5 genes (with a statistical significance of p<0.1 or better) while two compounds regulated 2 or fewer genes (with a p<0.1 or better). Table 2 below summarizes the number of epidermal genes regulated by certain materials in a Stem Cell Factor/Endothelin 1 driven tissue sample with a statistical significance of p≤0.1.
In example embodiments, tone is driven by application of stem cell factor and/or endothelin (with skin preparation, culturing, and mRNA processing being completed as previously described). In an example embodiment, skin samples are placed within 6-well plates, with 2.5 ml of media per well. A concentration of eighty nanograms per milliliter of stem cell factor as well as eighty nanograms per milliliter of endothelin was applied to tissue in the wells, with the media being refreshed daily. The culture was maintained for seven days. […]

Stem Cell Factor: compound known to stimulate the pigmentation pathway; paracrine agent
regulation of tone genes of interest (tone genes of interest): up regulate one or more tone genes of interest

CCCCCCCCC(CO)CCCCCC (stereo not drawn) [Hexyldecanol, hexyldecanol]
overall comparison to vehicle ([1]; significant if p<0.10 (1-sided) vs. vehicle): statistically better than vehicle controls
melanin evenness ([1]; versus vehicle control): significantly different from controls
spot area fraction (total area of spots per face) ([1]; versus vehicle control): decreased versus the control group
total melanin produced [2]: decreased total melanin
gene regulation in ex-vivo model (tone genes): down-regulation

α-MSH [reference compound]
regulation of tone genes of interest (tone genes of interest): up regulate one or more tone genes of interest

tranexamic acid
# Genes (out of 9) with p ≤ 0.1 (9 epidermal tone genes [3]): 7
# of Genes with p ≤ 0.1 (9 epidermal tone genes [4]): 3
